Reference: US9920033B2, “Crystalline form of a substituted quinoline compound and pharmaceutical compositions thereof” (Sunshine Lake Pharma Co., Ltd., priority 2015, dated 2018)
Where two headings read alike, the source gives them in different places.

Key:
Hygroscopicity test = assay type: physicochemical; conditions: p-toluenesulfonate; for Hygroscopicity (conclusion in words): from Table 6; for Hygroscopic capacity: 25±1° C.
Method: A glass weighing bottle equipped with a stopper was tarred and the weight was recorded as m1. Compound (I) in crystalline form A or amorphous form (about 1.0 g) was placed in the tared weighing bottle and capped with the stopper. The total weight was then recorded as m2. […] The weighing bottle capped with its stopper was weighed on day 5 and day 10 and the weight was recorded as m3.

[1] = Pharmacokinetics test in beagle dogs; assay type: in vivo; conditions: for AUC(0-inf) / Cmax / Tmax / half-life / AUC(0-t): dog, plasma, po, capsule by gavage; for AUC(0-t): read-out: AUC0-24 h
Method: The pharmacokinetic properties of amorphous Compound (I) or the crystalline form A of Compound (I) disclosed herein are assessed in beagle dogs. The LC/MS/MS system used in the analysis consists of an Agilent 1200 Series vacuum degasser, binary pump, well-plate autosampler, thermostatted column compartment, the Agilent G6430 Triple Quadrupole Mass Spectrometer with an electrosprayionization (ESI) source. Quantitative analysis was carried out using MRM mode. The parameters for MRM transitions are in the Table A.
An Agilent XDB-C18, 2.1×30 mm, 3.5 μM column was used for the analysis. 5 μL of the samples were injected. Analysis condition: The mobile phase was 0.1% formic acid in water (A) and 0.1% formic acid in methanol (B). The flow rate was 0.4 mL/min. And the gradient of Mobile phase was in the Table B.
Alternatively, an Agilent 6330 series LC/MS/MS spectrometer equipped with G1312A binary pumps, a G1367A autosampler and a G1314C UV detector were used in the analysis. An ESI source was used on the LC/MS/MS spectrometer. The analysis was done in positive ion mode as appropriate and the MRM transition for each analyte was optimized using standard solution. A Capcell MP-C18 100×4.6 mm I.D., […] column (Phenomenex, Torrance, Calif., USA) was used during the analysis. The mobile phase was 5 mM ammonia acetate, 0.1% MeOH in water (A): 5 mM ammonia acetate, 0.1% MeOH in acetonitrile (B) (70/30, v/v). The flow rate was 0.6 mL/min. Column was maintained at ambient temperature. 20 μL of the samples were injected.
[…] The blood samples (0.3 mL) were drawn at 0.25, 0.5, 1.0, 2.0, 3.0, 4.0, 6.0, 8.0, 12 and 24 hour time points or 0.083, 0.25, 0.5, 1.0, 2.0, 4.0, 6.0, 8.0 and 24 hour time points and centrifuged at 3,000 or 4000 rpm for 2 to 10 min. The plasma solutions were collected, and analyzed by LC/MS/MS as described above. The pharmacokinetic parameters were calculated according to non-compartment model using WinNonlin procedure.

[2] = Stability test (impurity contents by HPLC); assay type: physicochemical; conditions: for The impurity contents: HPLC; for Increase of the impurity contents: illuminating the samples for 10 days
Method: A sample of crystalline form A of compound (I) (100˜200 mg) was placed on a watching glass in the form of a thin layer (thickness ≤5 mm). The samples were exposed to the following conditions: high temperature (60±2° C.) for 10 days; high humidity (25±2° C., 90%±5% relative humidity) for 10 days; illumination condition (visible light 4500 lx±500 lx with ultraviolet light not lower than 0.7 W·h/m^2, 25±2° C., 60%±5% relative humidity) for 10 days; and room temperature (30±2° C., 65%±5% relative humidity) for 10 days, respectively. The impurity contents in the samples were determined at different time points (0, 5 and 10 days) by high performance liquid chromatography (HPLC), and the absorption peaks were normalized relative to the highest peak (corresponds to compound I) which is set to 100%.

[3] = dose 10 mg/kg, grain size D90 22 μm
[4] = high humidity (25±2° C., 90%±5% relative humidity), 0 day, p-toluenesulfonate
[5] = high humidity (25±2° C., 90%±5% relative humidity), 5 days, p-toluenesulfonate
[6] = high humidity (25±2° C., 90%±5% relative humidity), 10 days, p-toluenesulfonate
[7] = high temperature (60±2° C.), 0 day, p-toluenesulfonate
[8] = high temperature (60±2° C.), 5 days, p-toluenesulfonate
[9] = high temperature (60±2° C.), 10 days, p-toluenesulfonate
[10] = illuminating condition (visible light 4500 lx±500 lx with UV, 25±2° C., 60%±5% RH), 0 day, p-toluenesulfonate
[11] = illuminating condition (visible light 4500 lx±500 lx with UV, 25±2° C., 60%±5% RH), 5 days, p-toluenesulfonate
[12] = illuminating condition (visible light 4500 lx±500 lx with UV, 25±2° C., 60%±5% RH), 10 days, p-toluenesulfonate
[13] = room temperature (30±2° C., 65%±5% relative humidity), 0 day, p-toluenesulfonate
[14] = dose 9.7 mg/kg, grain size D90 32 μm

Hygroscopic capacity (Hygroscopicity test; standing time 5 d) [%]	Hygroscopic capacity (Hygroscopicity test; standing time 10 d) [%]	The impurity contents [2, 4] [%]	The impurity contents [2, 5] [%]	The impurity contents [2, 6] [%]	The impurity contents [2, 7] [%]	The impurity contents [2, 8] [%]	The impurity contents [2, 9] [%]	The impurity contents [2, 10] [%]	The impurity contents [2, 11] [%]	The impurity contents [2, 12] [%]	The impurity contents [2, 13] [%]	Compound	further results
0.03	0.12	0.35	0.37	0.39	0.35	0.37	0.37	0.35	0.38	0.48	0.35	Cc1c(C(=O)Nc2ccc(Oc3ccnc4cc(OCC(C)(C)O)ccc34)c(F)c2)c(=O)n(-c2ccccc2)n1C.Cc1ccc(S(=O)(=O)O)cc1 [Form A, N-(3-fluoro-4-((7-(2-hydroxy-2-methylpropoxy)quinolin-4-yl)oxy)phenyl)-1,5-dimethyl-3-oxo-2-phenyl-2,3-dihydro-1H-pyrazole-4-carboxamide p-toluenesulfonate]	Hygroscopicity (conclusion in words) (Hygroscopicity test; listed as crystalline form A of compound (I)): not hygroscopic; Exposure and bioavailability in vivo (conclusion in words) ([1]; Cmax, AUC0-24h and AUC0-∞ compared with amorphous Compound (I)): good exposure and bioavailability; AUC(0-inf) [1, 3]: 180000 ng·h/mL; Cmax [1, 3]: 6190 ng/mL; Tmax [1, 3]: 4 h; half-life [1, 3]: 25 h; AUC(0-t) [1, 3]: 131000 ng·h/mL; Increase of the impurity contents ([2]; listed as crystalline form A of Compound (I), p-toluenesulfonate): 0.13%
7.74	8.48	0.14	0.11	0.07	0.14	0.13	0.10	0.14	0.36	0.56	0.14	Cc1c(C(=O)Nc2ccc(Oc3ccnc4cc(OCC(C)(C)O)ccc34)c(F)c2)c(=O)n(-c2ccccc2)n1C.Cc1ccc(S(=O)(=O)O)cc1 [Amorphous, N-(3-fluoro-4-((7-(2-hydroxy-2-methylpropoxy)quinolin-4-yl)oxy)phenyl)-1,5-dimethyl-3-oxo-2-phenyl-2,3-dihydro-1H-pyrazole-4-carboxamide p-toluenesulfonate]	Hygroscopicity (conclusion in words) (Hygroscopicity test; listed as amorphous Compound (I)): hygroscopic; AUC(0-inf) [1, 14]: 55300 ng·h/mL; Cmax [1, 14]: 2640 ng/mL; Tmax [1, 14]: 3.33 h; half-life [1, 14]: 15 h; AUC(0-t) [1, 14]: 37300 ng·h/mL; Increase of the impurity contents ([2]; listed as amorphous Compound (I), p-toluenesulfonate): 0.42%; The impurity contents ([2]; room temperature (30±2° C., 65%±5% relative humidity), 5 days): 0.07%; The impurity contents ([2]; room temperature (30±2° C., 65%±5% relative humidity), 10 days): 0.07%
